Test system: diarrhea-predominant IBS subjects
Format: in vivo, human
Protocol: The study was performed in approximately 150 study centers. Approximately 1600 eligible subjects were to be given cilansetron 2 mg TID. At Visit 1, pre-treatment assessments were conducted. […] Subjects were to return to the study site one month later for Visit 3 (Day 31) for their first interim assessment. […] All subjects who discontinued from the study were to have the same post-study assessments required at Visit 7 performed at their early termination visit. […]
Stool specimens were analyzed at every visit for occult blood. An independent GERB had been established to provide advice on GI AEs during the course of the study.
Adverse events were assessed at Baseline, at each clinic visit, and at the end of the study (Month 12 or the early termination visit). All AEs, which occurred during the study were followed up in accordance with good medical practice until resolved or judged no longer clinically significant, or if a condition was chronic, until fully characterized. Adverse events could occur in the specified follow-up period and, regardless of the interval since the last administration of the study medication, were treated in the same manner as an AE which occurred during the treatment with study medication. Each AE was evaluated for duration, severity, seriousness, and causal relationship to the investigational drug. The action taken and the outcome were also recorded.
Specifically, subjects who were lost to follow-up and had no post-Baseline contact with the site were excluded from the Safety population. The subjects who discontinued from the study due to lost to follow-up were identified based on the information collected on the study termination CRF page.
After the pretreatment assessment at Visit 1 (Days […] to −3), subjects were to return to the study site for a Baseline assessment and start the treatment at Visit 2 (Day 1).
For the by time-interval analyses of disposition, prevalence of AEs, and of markedly abnormal and predefined changes in laboratory values, vital signs, and ECGs, the following interval windows were used:
Adverse events that were already present prior to the first dose of cilansetron study medication but increased in severity afterwards were considered as treatment-emergent.
The 5% cutoff point was based on the incidence within higher level terms.
Subjects were counted at most once for each primary system organ class and preferred term. Serious AEs that resolved prior to receiving study medication or occurred more than 30 days after the last dose of study medication were not included in the incidence tables. A listing of all SAEs is presented; SAEs with onset prior to receiving study medication or more than 30 days after discontinuation of study medication were flagged. The listing presents lower level term and preferred term of the SAE, severity, action taken, outcome, and relationship of the SAE, start and stop date of the SAE, study day of onset of the SAE, age, race, and sex.

[1] = 2 mg, Safety Population, 3008, system organ class
[2] = 2 mg, Safety Population, 3008, under Blood and Lymphatic System Disorders
[3] = 2 mg, Safety Population, 3008, under Congenital, Familial and Genetic Disorders
[4] = 2 mg, Safety Population, 3008, under Ear and Labyrinth Disorders
[5] = 2 mg, Safety Population, 3008, under Endocrine Disorders
[6] = 2 mg, Safety Population, 3008, under Eye Disorders
[7] = 2 mg, Safety Population, 3008, under Hepatobiliary Disorders
[8] = 2 mg, Safety Population, 3008, under Immune System Disorders
[9] = 2 mg, Safety Population, 3008, under Neoplasms Benign, Malignant and Unspecified

## Cc1nccn1C[C@H]1CCc2c(c3cccc4c3n2CCC4)C1=O [cilansetron, (R)-(−)-4,5,6,8,9,10-hexahydro-10-[(2-methyl-1H-imidazol-1-yl)methyl]-11H-pyrido-[3,2,1-jk]-carbazol-11-one]
  TEAE incidence: Influenza Viral Infections: 51 (4%) n (%)
2 mg, Safety Population, 3008
  TEAE incidence: Scrotal Disorders NEC*: 1 (<1%) n (%)
  TEAE incidence: Scrotal Swelling*: 1 (<1%) n (%)
  TEAE incidence: Vaginal Haemorrhage*: 1 (<1%) n (%)
  TEAE incidence: Vulvovaginal Disorders NEC*: 1 (<1%) n (%)
[1]
  TEAE incidence: Blood and Lymphatic System Disorders: 13 (<1%) n (%)
  TEAE incidence: Congenital, Familial and Genetic Disorders: 3 (<1%) n (%)
  TEAE incidence: Ear and Labyrinth Disorders: 22 (2%) n (%)
  TEAE incidence: Endocrine Disorders: 7 (<1%) n (%)
  TEAE incidence: Eye Disorders: 18 (1%) n (%)
  TEAE incidence: Hepatobiliary Disorders: 13 (<1%) n (%)
  TEAE incidence: Immune System Disorders: 23 (2%) n (%)
  TEAE incidence: Neoplasms Benign, Malignant and Unspecified (Incl Cysts and Polyps): 17 (1%) n (%)
  TEAE incidence: Pregnancy, Puerperium and Perinatal Conditions: 2 (<1%) n (%)
  TEAE incidence: Social Circumstances: 3 (<1%) n (%)
  TEAE incidence: Surgical and Medical Procedures: 2 (<1%) n (%)
  TEAE incidence: Vascular Disorders: 32 (2%) n (%)
[2]
  TEAE incidence: Anaemia Deficiencies: 1 (<1%) n (%)
  TEAE incidence: Anaemia NOS: 5 (<1%) n (%)
  TEAE incidence: Anaemia Vitamin B12 Deficiency: 1 (<1%) n (%)
  TEAE incidence: Anaemias NEC: 7 (<1%) n (%)
  TEAE incidence: Anisocytosis: 1 (<1%) n (%)
  TEAE incidence: Eosinophilia: 2 (<1%) n (%)
  TEAE incidence: Hypochromic Anaemia: 1 (<1%) n (%)
  TEAE incidence: Leukocytoses NEC: 4 (<1%) n (%)
  TEAE incidence: Leukocytosis: 2 (<1%) n (%)
  TEAE incidence: Leukopenia NOS: 2 (<1%) n (%)
  TEAE incidence: Leukopenias NEC: 2 (<1%) n (%)
  TEAE incidence: Neutropenia: 1 (<1%) n (%)
  TEAE incidence: Neutropenias: 1 (<1%) n (%)
  TEAE incidence: Neutrophilia: 2 (<1%) n (%)
  TEAE incidence: Normochromic Normocytic Anaemia: 1 (<1%) n (%)
  TEAE incidence: Poikilocytosis: 1 (<1%) n (%)
  TEAE incidence: Red Blood Cell Abnormal Findings NEC: 1 (<1%) n (%)
  TEAE incidence: Secondary Thrombocythaemias: 1 (<1%) n (%)
  TEAE incidence: Thrombocythaemia: 1 (<1%) n (%)
[3]
  TEAE incidence: Congenital Claw Toe: 1 (<1%) n (%)
  TEAE incidence: Musculoskeletal and Connective Tissue Disorders of Limbs Congenital: 1 (<1%) n (%)
  TEAE incidence: Pigmented Naevus: 2 (<1%) n (%)
  TEAE incidence: Skin and Subcutaneous Tissue Disorders Congenital NEC: 2 (<1%) n (%)
[4]
  TEAE incidence: Ear Disorders NEC: 3 (<1%) n (%)
  TEAE incidence: Ear Pain: 3 (<1%) n (%)
  TEAE incidence: Hyperacusia: 1 (<1%) n (%)
  TEAE incidence: Hyperacusis: 1 (<1%) n (%)
  TEAE incidence: Inner Ear Disorder NOS: 1 (<1%) n (%)
  TEAE incidence: Inner Ear Disorders NEC: 1 (<1%) n (%)
  TEAE incidence: Inner Ear Signs and Symptoms: 18 (1%) n (%)
  TEAE incidence: Tinnitus: 8 (<1%) n (%)
  TEAE incidence: Vertigo: 10 (<1%) n (%)
  TEAE incidence: Vertigo Positional: 1 (<1%) n (%)
[5]
  TEAE incidence: Acquired Hypothyroidism: 3 (<1%) n (%)
  TEAE incidence: Acute and Chronic Thyroiditis: 1 (<1%) n (%)
  TEAE incidence: Goitre: 2 (<1%) n (%)
  TEAE incidence: Thyroid Disorders NEC: 2 (<1%) n (%)
  TEAE incidence: Thyroid Hyperfunction Disorders: 2 (<1%) n (%)
  TEAE incidence: Thyroid Hypofunction Disorders: 3 (<1%) n (%)
  TEAE incidence: Thyroid Neoplasms: 1 (<1%) n (%)
  TEAE incidence: Thyroid Nodule: 1 (<1%) n (%)
  TEAE incidence: Thyroiditis NOS: 1 (<1%) n (%)
  TEAE incidence: Thyrotoxicosis: 2 (<1%) n (%)
[6]
  TEAE incidence: Amaurosis Fugax: 1 (<1%) n (%)
  TEAE incidence: Blindness (Excl Colour Blindness): 1 (<1%) n (%)
  TEAE incidence: Cataract Unilateral: 1 (<1%) n (%)
  TEAE incidence: Cataracts (Excl Congenital): 1 (<1%) n (%)
  TEAE incidence: Conjunctival Haemorrhage: 1 (<1%) n (%)
  TEAE incidence: Conjunctival and Corneal Bleeding and Vascular Disorders: 1 (<1%) n (%)
  TEAE incidence: Conjunctivitis: 1 (<1%) n (%)
  TEAE incidence: Dry Eye NOS: 1 (<1%) n (%)
  TEAE incidence: Eye Irritation: 1 (<1%) n (%)
  TEAE incidence: Eye Pain: 2 (<1%) n (%)
  TEAE incidence: Eyelid Oedema: 2 (<1%) n (%)
  TEAE incidence: Glaucoma NOS: 1 (<1%) n (%)
  TEAE incidence: Glaucomas (Excl Congenital): 1 (<1%) n (%)
  TEAE incidence: Lacrimal Disorders: 1 (<1%) n (%)
  TEAE incidence: Ocular Disorders NEC: 2 (<1%) n (%)
  TEAE incidence: Ocular Sensation Disorders: 1 (<1%) n (%)
  TEAE incidence: Partial Vision Loss: 2 (<1%) n (%)
  TEAE incidence: Photophobia: 1 (<1%) n (%)
  TEAE incidence: Retinal Bleeding and Vascular Disorders (Excl Retinopathy): 1 (<1%) n (%)
  TEAE incidence: Retinal Detachment: 1 (<1%) n (%)
  TEAE incidence: Retinal Structural Change, Deposit and Degeneration: 1 (<1%) n (%)
  TEAE incidence: Retinal Vascular Disorder NOS: 1 (<1%) n (%)
  TEAE incidence: Retinitis NOS: 1 (<1%) n (%)
  TEAE incidence: Vision Abnormal NOS Exacerbated: 1 (<1%) n (%)
  TEAE incidence: Vision Blurred: 1 (<1%) n (%)
  TEAE incidence: Visual Disorders NEC: 3 (<1%) n (%)
  TEAE incidence: Visual Disturbance NOS: 3 (<1%) n (%)
[7]
  TEAE incidence: Biliary Dyskinesia: 1 (<1%) n (%)
  TEAE incidence: Cholecystitis NOS: 2 (<1%) n (%)
  TEAE incidence: Cholecystitis and Cholelithiasis: 3 (<1%) n (%)
  TEAE incidence: Cholelithiasis: 1 (<1%) n (%)
  TEAE incidence: Cholestasis and Jaundice: 1 (<1%) n (%)
  TEAE incidence: Gallbladder Disorders NEC: 1 (<1%) n (%)
  TEAE incidence: Hepatic Cyst NOS: 1 (<1%) n (%)
  TEAE incidence: Hepatic Disorder NOS: 2 (<1%) n (%)
  TEAE incidence: Hepatic and Hepatobiliary Disorders NEC: 2 (<1%) n (%)
  TEAE incidence: Hepatitis NOS: 3 (<1%) n (%)
  TEAE incidence: Hepatobiliary Neoplasms Benign: 1 (<1%) n (%)
  TEAE incidence: Hepatocellular Damage and Hepatitis NEC: 5 (<1%) n (%)
  TEAE incidence: Jaundice Cholestatic: 1 (<1%) n (%)
  TEAE incidence: Liver Fatty: 2 (<1%) n (%)
[8]
  TEAE incidence: Allergic Conditions NEC: 8 (<1%) n (%)
  TEAE incidence: Allergies to Foods, Food Additives, Drugs and Other Chemicals: 3 (<1%) n (%)
  TEAE incidence: Atopic Disorders: 12 (<1%) n (%)
  TEAE incidence: Drug Hypersensitivity: 3 (<1%) n (%)
  TEAE incidence: Hypersensitivity NOS: 7 (<1%) n (%)
  TEAE incidence: Seasonal Allergy: 12 (<1%) n (%)
[9]
  TEAE incidence: Benign Ureteric Neoplasm NOS: 1 (<1%) n (%)
  TEAE incidence: Bladder Neoplasm NOS: 1 (<1%) n (%)
  TEAE incidence: Breast Cancer NOS*: 1 (<1%) n (%)
  TEAE incidence: Breast and Nipple Neoplasms Malignant*: 1 (<1%) n (%)
  TEAE incidence: Cartilage Neoplasms Benign: 1 (<1%) n (%)
  TEAE incidence: Enchondromatosis: 1 (<1%) n (%)

Reference: patent publication US20070093520A1, “Method of treatment of diarrhea-predominant irritable bowel syndrome in a subject” (priority 2005, published 2007)
